Source: PubChem BioAssay AID248 (DTP/NCI, 2004)
Several values for one entry are separate records, joined by “and”; a condition that tells them apart may be missing. Equal entries are not always repeated. Toxic doses and inconclusive results are not listed. Cut-off read from the data, not from the text of the source: active = T/C of 150% or more; inactive = T/C below 125%.

Tested on: L1210 leukemia ip in BDF1 mice, survival T/C
Test: NCI In Vivo Anticancer Drug Screen. Data for tumor model L1210 Leukemia (intraperitoneal) in B6D2F1 (BDF1) mice
Conditions: endpoint: mean survival time, higher = longer survival
How it was run: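 Value reflects the ratio of survival in compound-treated mice to survival in vehicle-treated controls, with both groups carrying the same transplanted tumor.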

[1] = dose: 25.0 mg/kg/injection, schedule: Q04DX002 (ip), vehicle: saline
[2] = dose: 100.0 mg/kg/injection, schedule: Q04DX003 (ip), vehicle: Klucel (hydroxypropylcellulose) (HPC)
[3] = dose: 200.0 mg/kg/injection, schedule: Q04DX003 (ip), vehicle: Klucel (hydroxypropylcellulose) (HPC)
[4] = dose: 100.0 mg/kg/injection, schedule: Q04DX003 (ip), vehicle: saline with Tween-80
[5] = dose: 100.0 mg/kg/injection, schedule: Q01DX001 (ip), vehicle: saline
[6] = dose: 200.0 mg/kg/injection, schedule: Q01DX001 (ip), vehicle: saline
[7] = dose: 400.0 mg/kg/injection, schedule: Q01DX001 (ip), vehicle: saline
[8] = dose: 50.0 mg/kg/injection, schedule: Q01DX001 (ip), vehicle: saline

Measured: T/C

C[C@]1(O)CC[C@H]2[C@@H]3CC[C@@H]4CC(=O)CC[C@]4(C)[C@@]3(F)C(=O)C[C@@]21C
inactive: dose: 50.0 mg/kg/injection, schedule: Q01DX Z (sc), vehicle: steriod suspending solution 96 % of control | dose: 250.0 mg/kg/injection, schedule: Q01DX Z (sc), vehicle: steriod suspending solution 101 % of control | dose: 500.0 mg/kg/injection, schedule: Q01DX Z (sc), vehicle: steriod suspending solution 98 % of control

CCN(CC)CCNCc1cc(Cl)c2cccnc2c1O
inactive: dose: 6.25 mg/kg/injection, schedule: Q04DX002 (ip), vehicle: saline 90 % of control | dose: 12.5 mg/kg/injection, schedule: Q04DX002 (ip), vehicle: saline 97 % of control | [1] 94 % of control

COc1ccc2c3c(ccc2c1)C(=O)/C(=C\O)CC3
inactive: dose: 25.0 mg/kg/injection, schedule: Q01DX009 (ip), vehicle: Klucel (hydroxypropylcellulose) (HPC) 92 % of control | dose: 25.0 mg/kg/injection, schedule: Q04DX003 (ip), vehicle: Klucel (hydroxypropylcellulose) (HPC) 100 % of control | dose: 50.0 mg/kg/injection, schedule: Q01DX009 (ip), vehicle: Klucel (hydroxypropylcellulose) (HPC) 108 % of control | dose: 50.0 mg/kg/injection, schedule: Q04DX003 (ip), vehicle: Klucel (hydroxypropylcellulose) (HPC) 101 % of control | dose: 100.0 mg/kg/injection, schedule: Q01DX009 (ip), vehicle: Klucel (hydroxypropylcellulose) (HPC) 88 % of control | [2] 100 % of control and 103 % of control | [3] 103 % of control

CCCCCCCCC[n+]1cccc(C(N)=O)c1
inactive: [4] 106 % of control

COc1ccc(C(=S)N2CCN(c3ccc(Cl)cc3)CC2)cc1
inactive: [5] 95 % of control | [6] 95 % of control | [7] 95 % of control

C[CH2][Sn]1([CH2]C)[O]OC(c2ccccc2)[O]1 (stereo not drawn)
inactive: dose: 0.78 mg/kg/injection, schedule: Q01DX009 (ip), vehicle: saline with Tween-80 101 % of control and 102 % of control | dose: 1.56 mg/kg/injection, schedule: Q01DX009 (ip), vehicle: saline with Tween-80 101 % of control and 110 % of control | dose: 3.12 mg/kg/injection, schedule: Q01DX009 (ip), vehicle: saline with Tween-80 105 % of control and 122 % of control | dose: 6.25 mg/kg/injection, schedule: Q01DX009 (ip), vehicle: saline with Tween-80 100 % of control | dose: 6.25 mg/kg/injection, schedule: Q04DX002 (ip), vehicle: saline with Tween-80 94 % of control | dose: 12.5 mg/kg/injection, schedule: Q01DX009 (ip), vehicle: saline with Tween-80 114 % of control and 121 % of control | dose: 12.5 mg/kg/injection, schedule: Q04DX002 (ip), vehicle: saline with Tween-80 96 % of control | dose: 25.0 mg/kg/injection, schedule: Q01DX009 (ip), vehicle: saline with Tween-80 91 % of control

CC(C)(C)C1CCC(NN)CC1 (stereo not drawn)
inactive: dose: 0.78 mg/kg/injection, schedule: Q01DX009 (ip), vehicle: saline 101 % of control | dose: 1.56 mg/kg/injection, schedule: Q01DX009 (ip), vehicle: saline 100 % of control | dose: 3.12 mg/kg/injection, schedule: Q01DX009 (ip), vehicle: saline 101 % of control | dose: 6.25 mg/kg/injection, schedule: Q01DX009 (ip), vehicle: saline 95 % of control | dose: 12.5 mg/kg/injection, schedule: Q04DX003 (ip), vehicle: saline 98 % of control | dose: 25.0 mg/kg/injection, schedule: Q04DX003 (ip), vehicle: saline 98 % of control | [8] 92 % of control

Oc1c(CN2CCCC2)cc(Nc2nc(/C=C/c3ccc(Cl)cc3)nc(Cl)c2-c2ccc(Cl)cc2)cc1CN1CCCC1
inactive: dose: 75.0 mg/kg/injection, schedule: Q01DX001 (ip), vehicle: saline 96 % of control | dose: 75.0 mg/kg/injection, schedule: Q04DX003 (ip), vehicle: Klucel (hydroxypropylcellulose) (HPC) 98 % of control | dose: 150.0 mg/kg/injection, schedule: Q01DX001 (ip), vehicle: saline 96 % of control | dose: 150.0 mg/kg/injection, schedule: Q04DX003 (ip), vehicle: Klucel (hydroxypropylcellulose) (HPC) 91 % of control | dose: 300.0 mg/kg/injection, schedule: Q01DX001 (ip), vehicle: saline 93 % of control | dose: 300.0 mg/kg/injection, schedule: Q04DX003 (ip), vehicle: Klucel (hydroxypropylcellulose) (HPC) 91 % of control

Cc1cc(N(CCOS(C)(=O)=O)CCOS(C)(=O)=O)ccc1C=Nc1ccc(-c2csc(-c3ccccc3)n2)c(Cl)c1
inactive: dose: 20.0 mg/kg/injection, schedule: Q04DX003 (ip), vehicle: Klucel (hydroxypropylcellulose) (HPC) 121 % of control | dose: 60.0 mg/kg/injection, schedule: Q04DX003 (ip), vehicle: Klucel (hydroxypropylcellulose) (HPC) 122 % of control | dose: 80.0 mg/kg/injection, schedule: Q04DX003 (ip), vehicle: Klucel (hydroxypropylcellulose) (HPC) 120 % of control | [2] 122 % of control

O=C1CCC(N2C(=O)C3C4C=CC(CC4)C3C2=O)C(=O)N1 (stereo not drawn)
inactive: dose: 100.0 mg/kg/injection, schedule: Q04DX003 (ip), vehicle: saline 97 % of control | dose: 200.0 mg/kg/injection, schedule: Q04DX003 (ip), vehicle: saline 102 % of control | dose: 400.0 mg/kg/injection, schedule: Q04DX003 (ip), vehicle: saline 90 % of control

CC(C)(CO)N=Cc1cccc(Br)c1
inactive: [5] 96 % of control | [6] 98 % of control | [7] 98 % of control

O=C(c1c2c(nc3ccccc13)CCCC2)N1CCOCC1
inactive: [5] 100 % of control | [6] 97 % of control | [7] 97 % of control

O=[N+]([O-])c1ccc2c(c1)=N/C(=N\c1nc(O)c(O)[nH]1)N=2
inactive: [2] 101 % of control | [3] 98 % of control | dose: 400.0 mg/kg/injection, schedule: Q04DX003 (ip), vehicle: Klucel (hydroxypropylcellulose) (HPC) 104 % of control

Cc1cccc[c]1[Sb](=[O])([OH])[OH]
inactive: dose: 5.0 mg/kg/injection, schedule: Q01DX001 (ip), vehicle: saline 94 % of control | dose: 10.0 mg/kg/injection, schedule: Q01DX001 (ip), vehicle: saline 97 % of control | dose: 20.0 mg/kg/injection, schedule: Q01DX001 (ip), vehicle: saline 97 % of control | dose: 40.0 mg/kg/injection, schedule: Q01DX001 (ip), vehicle: saline 103 % of control | dose: 80.0 mg/kg/injection, schedule: Q01DX001 (ip), vehicle: saline 105 % of control

C1Cc2c3c4c(c5c2C(C1)CCC5)CCCC4CCC3
inactive: [5] 97 % of control | [6] 94 % of control | [7] 91 % of control

CC(=O)Nc1ccc(NC(=S)NC(=O)COc2ccccc2)cc1
inactive: dose: 50.0 mg/kg/injection, schedule: Q04DX002 (ip), vehicle: saline with Tween-80 102 % of control and 105 % of control | dose: 100.0 mg/kg/injection, schedule: Q01DX001 (ip), vehicle: saline with Tween-80 107 % of control | dose: 100.0 mg/kg/injection, schedule: Q01DX009 (ip), vehicle: saline with Tween-80 102 % of control and 91 % of control | [4] 97 % of control | dose: 200.0 mg/kg/injection, schedule: Q01DX001 (ip), vehicle: saline with Tween-80 98 % of control | dose: 200.0 mg/kg/injection, schedule: Q01DX009 (ip), vehicle: saline with Tween-80 95 % of control and 98 % of control | dose: 200.0 mg/kg/injection, schedule: Q04DX003 (ip), vehicle: saline with Tween-80 90 % of control | dose: 400.0 mg/kg/injection, schedule: Q01DX001 (ip), vehicle: saline with Tween-80 97 % of control | dose: 400.0 mg/kg/injection, schedule: Q01DX009 (ip), vehicle: saline with Tween-80 101 % of control and 87 % of control | dose: 400.0 mg/kg/injection, schedule: Q04DX003 (ip), vehicle: saline with Tween-80 95 % of control

O=S(=O)(O)SCC1=NCCN1
inactive: [1] 103 % of control | dose: 50.0 mg/kg/injection, schedule: Q04DX002 (ip), vehicle: saline 93 % of control | dose: 100.0 mg/kg/injection, schedule: Q04DX002 (ip), vehicle: saline 98 % of control

c1ccc2c(c1)C[N+](=C1CCCCC1)C2
inactive: dose: 75.0 mg/kg/injection, schedule: Q01DX009 (ip), vehicle: saline 91 % of control | [5] 93 % of control | dose: 150.0 mg/kg/injection, schedule: Q01DX009 (ip), vehicle: saline 88 % of control | [6] 97 % of control | dose: 300.0 mg/kg/injection, schedule: Q01DX009 (ip), vehicle: saline 91 % of control | [7] 98 % of control

CC(CC(=O)c1ccccc1)C(C(=O)c1ccccc1)c1ccccc1 (stereo not drawn)
inactive: dose: 50.0 mg/kg/injection, schedule: Q01DX009 (ip), vehicle: other 101 % of control | dose: 100.0 mg/kg/injection, schedule: Q01DX009 (ip), vehicle: other 101 % of control | dose: 200.0 mg/kg/injection, schedule: Q01DX009 (ip), vehicle: other 101 % of control

CC(C)N(N=O)C(C)C
inactive: [8] 104 % of control | [5] 104 % of control | [6] 102 % of control | [7] 98 % of control
